Results on four compounds are retold here after article PMC7070733 (Molecules, 2020).

The test system of one data set is C. perfringens NA. The format is biochemical. Particulars: for IC50 NA-C. perfringens / IC50: MUNANA substrate; for IC50 NA-C. perfringens: nd = no detection.
In another data set the target is H1N1 NA (Influenza A virus, UniProt Q9IGQ6). Kind of data set: biochemical. The format is biochemical.
Data set [1] concerns influenza virus replication. Set-up: method as in PMID 16137775. Particulars: in vitro; cited from earlier work.
The test system of data set [2] is endonuclease activity of RNA polymerase in influenza A virus. Details: method as in earlier work. The settings on record: ref 40 (Kuzuhara et al. 2009); cited from earlier work.

≈ marks a conversion by molar mass, not a printed value. Where “and” joins values, the source holds several entries; their conditions need not be identical. Equal entries are not always repeated. Entries after “also recorded” stand apart in the source; their conditions may differ.

H1N1 NA, sequence (Q9IGQ6 whole entry, looked up): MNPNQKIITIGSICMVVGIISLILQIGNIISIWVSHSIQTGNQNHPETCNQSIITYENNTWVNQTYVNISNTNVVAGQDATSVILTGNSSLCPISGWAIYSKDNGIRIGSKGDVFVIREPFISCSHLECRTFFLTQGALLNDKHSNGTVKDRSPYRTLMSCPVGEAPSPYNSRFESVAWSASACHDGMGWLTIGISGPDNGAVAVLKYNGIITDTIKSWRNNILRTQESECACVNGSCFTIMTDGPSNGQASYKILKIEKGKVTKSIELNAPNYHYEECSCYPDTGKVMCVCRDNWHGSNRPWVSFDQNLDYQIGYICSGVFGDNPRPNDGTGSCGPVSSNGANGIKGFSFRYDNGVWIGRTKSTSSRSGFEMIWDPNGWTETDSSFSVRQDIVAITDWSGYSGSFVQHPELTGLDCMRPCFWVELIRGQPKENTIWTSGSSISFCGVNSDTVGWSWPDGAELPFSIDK

As for `CC(=O)N[C@H]1[C@H]([C@H](O)[C@H](O)CO)OC(C(=O)O)=C[C@@H]1O` [DANA, 2,3-didehydro-2-deoxy-N-acetylneuraminic acid, reference compound], the “IC50 NA-C. perfringens” value in the data set on C. perfringens NA is given as 28.79 µg/mL (≈ 98.8 µM).
`C[C@H]1C(=O)CC[C@@H]2[C@]1(C)CC[C@H]1[C@@]2(C)CC[C@@]2(C)[C@@H]3CC(C)(C)CC[C@]3(C)CC[C@]12C` [GC1, Friedeline]: the “activity against H1N1 NA (in words)” value on H1N1 NA was “inactive”. In addition, the “activity against C. perfringens NA (in words)” value in the data set with C. perfringens NA is recorded as “not active”.
The term IC50 denotes the concentration needed to halve the response being measured. A high value points to weaker potency in that assay. Broadly, the melting point is the temperature of the solid-liquid transition. Compound `COC(=O)/C(C)=C/C(O)CC(C)C1(C)CC=C2C3CCC4C(C)(C)C(O)CCC4(C)C3(O)CCC21C` (stereo not drawn) [GC2, Methyl (24E)-3a,9,23-trihydroxy-17,14-friedolanostan-14,24-dien-26-oate] had a melting point of 130 to 135 °C. Besides, at H1N1 NA, the “activity against H1N1 NA (in words)” value is given as “did not show any significant activity; also recorded: less active”. For the same compound, the IC50 against H1N1 NA (IC50 NA-H1N1) is 1920 µM. In the data set with C. perfringens NA, the “activity against C. perfringens NA (in words)” value was “less active; also recorded: satisfactory inhibition”; the “maximum inhibition against C. perfringens-NA” value came to 79%; the midpoint of inhibition, the IC50, lay at 123 µM; the “IC50 NA-C. perfringens” value was 81.78 µg/mL and 81.72 µg/mL.
For the compound `Oc1cc(O)c2c(c1)OC(c1ccc(O)c(O)c1)C(O)C2` (stereo not drawn) [GC4, catechin], the “inhibition of influenza virus replication (in words)” value in data set [1] is “good inhibition”. In addition, the “activity against H1N1 NA (in words)” value at H1N1 NA is given as “moderately active; also recorded: moderate activity”. Moreover, the IC50 on H1N1 NA (IC50 H1N1 NA) is 91 µM; on H1N1 NA (IC50 NA-H1N1), 90.6 µM; in the data set on C. perfringens NA it was 60.3 µM. For the same compound, in the data set with C. perfringens NA, the “activity against C. perfringens NA (in words)” value was “moderately active; also recorded: moderate activity”. Also, in the data set on C. perfringens NA, the “IC50 NA-C. perfringens” value is listed as 17.48 µg/mL (≈ 60.2 µM). In addition, the “inhibition of endonuclease activity of RNA polymerase (in words)” value in data set [2] is reported as “inhibited”.
